Assay results: patent publication US9422566B2, “Gene cluster for biosynthesis of griselimycin and methylgriselimycin” (SANOFI, priority 2011, dated 2016)

Assays:
Type in all cases: biochemical, Streptomyces DSM 22643
Conditions in all cases: in vitro ATP-[32P]PPi exchange, amino acid 5 mM, 30° C., nine substrates tested
[1] = tested on: A domain of module 2 (A2) of NRPS-1; experiment: ATP-PPi exchange assay, substrate specificity of A domain A2
Method: (§1) In order to gain insight into the specificity of the A domains of modules 2, 5 and 8, the domains were recombinantly produced and their specificity analysed via an ATP/PPi exchange assay in vitro.
(§2) In order to directly investigate A domain substrate specificity, we aimed to express A domains A2, A5 and A8 from the griselimycin pathway as N-terminally His6-tagged proteins from pET28b (+). […]
(§3) Substrate specificity of the 3 purified adenylation domains was evaluated using the established ATP-PPi exchange assay (Mootz and Marahiel. 1997, Thomas et al., 2002). […] As a control, each protein was incubated in the absence of added amino acid, to determine the radioactivity background reaction. […]
(§4) To determine substrate specificity, ATP-[^32P]PPi reactions (100 μl) containing Tris-HCl (pH 7.5, 75 mM), MgCl2 (10 mM), […] (5 mM), amino acid (5 mM), and protein (2 μg) were performed at 30° C. ^32P-tetrasodium pyrophosphate was obtained from Perkin Elmer (NEN #NEX019). […] The charcoal was pelleted by centrifugation prior to being washed twice with the washing solution 0.1 M Na4P2O7 and 0.35 M perchloric acid in H2O), resuspended in H2O (500 μl), and counted by liquid scintillation (Beckman LS6500).

[2] = tested on: A domain of module 8 (A8) of NRPS-2; experiment: ATP-PPi exchange assay, substrate specificity of A domain A8
Method: as §1, §2, §3, §4

[3] = tested on: A domain of module 5 (A5) of NRPS-1; experiment: ATP-PPi exchange assay, substrate specificity of A domain A5
Method: as §1, §2, §3, §4

SMILES	specificity of the domain A2 for the substrate [1]	specificity of the domain A8 for the substrate [2]	specificity of the domain A5 for the substrate [3]
C[C@H]1CN[C@H](C(=O)O)C1 [(2S,4R)-4-methylproline]	highest	highest	highest
O=C(O)[C@@H]1CCCN1 [L-proline]		high specificity	
